Like-named read-outs stand apart in the source and are kept apart here.
Key:
Type in all cases: in vivo
armyworm = assay: Insecticidal activity against armyworm (Airbrush spray on maize blade segments); details: 72 h, 3 d after administration, 3rd-instar larvae, read-out: fatality rate against armyworm
Method: (§1) The compound to be tested was dissolved by a mixed solvent of acetone/methanol (1:1), and then diluted by water containing 0.1% (wt) Tween 80 to the required concentration.
(§2) An Airbrush spray method was adopted for the determination of the activity, with armyworm, Plutella xylostella and Chilo suppressalis as targets.
Determination method: maize blades were cut into 2 cm (length) segments; with the pressure of Airbrush spray being 10 psi (about 0.7 kg/cm^2), both sides of each blade segment were sprayed with the amount of 0.5 ml. After dried in the shade, each segment was inoculated with 10 3rd-instar larvaes, 3 repeats for each segment. And then, the treated segments were put into an observation room (25° C., relative humidity: 60-70%) for cultivation; the number of the survivals was surveyed 1 d, 2 d and 3 d after administration, and then the death rate was calculated.

Plutella xylostella = assay: Insecticidal activity against Plutella xylostella (Airbrush spray on cabbage leaf discs); details: Plutella xylostella, foliar, 72 h, 3 d after administration
Method: as §1, §2
Determination method: cabbage blades were punched into 2 cm (diameter) leaf discs by a puncher; with the pressure of Airbrush spray being 10 psi (about 0.7 kg/cm^2), both sides of each leaf disc were sprayed with the amount of 0.5 ml. After dried in the shade, each leaf disc was inoculated with 10 3rd-instar larvaes, 3 repeats for each leaf disc. And then, the treated leaf discs were put into an observation room (25° C., relative humidity: 60-70%) for cultivation; the number of the survivals was surveyed 1 d, 2 d and 3 d after administration, and then the death rate was calculated.

Chilo suppressalis = assay: Insecticidal activity against Chilo suppressalis (spray on rice seedlings, stems fed to larvae); details: Chilo suppressalis, 72 h, survivals surveyed 3 d after administration, read-out: fatality rate against Chilo suppressalis
Method: as §1, §2
Determination method: 1) preparation of rice seedlings: rice was cultivated in small plastic cups (diameter: 4.5 cm and height: 4 cm) at a constant temperature room (temperature: 26-28° C., relative humidity: 60-80% around and illumination: 16 hL:8 hD), after the rice grew to a 4-5 leaf stage, vigorous and uniform-growth rice seedlings were selected and treated with an insecticide, 3 repeats for each treatment. 2) Preparation of pests for test: 3rd-instar larvaes of Chilo suppressalis fed continuously in the room. 3) Inoculation of pests on rice stems by spray. The whole plants of the rice seedlings were sprayed by a spray method uniformly, with the dose of 15 ml for each treatment. The blank control was treated first, and the above operation was repeated in an order of lower to higher test concentration. After sprayed, rice seedlings were placed in the shade to dry the insecticide liquor, and then stalks about 5 cm above the basal part of the stems were cut to be fed to the pests for test. Glass petri dishes (diameter: […]) were prepared, cushioned by filter paper at the bottom thereof, and subjected to water addition for moisturizing; about 20 pieces of rice stems were put in each dish and inoculated with 10 larvaes; then the petri dishes were closed by non-woven fabrics and placed in a constant temperature room for culture. The number of survivals was surveyed 3 d after administration.

N#CCN(C(=O)c1ccc(C(F)(F)F)cc1)c1cccc(C(=O)Nc2c(Br)cc(C(F)(C(F)(F)F)C(F)(F)F)cc2Br)c1F [Compound 2.43]
≥ 90%: pest or weed control at 0.05 µg/mL (armyworm; 0.05 mg/L) | pest or weed control at 0.1 µg/mL (armyworm; 0.1 mg/L) | pest or weed control at 0.5 µg/mL (armyworm; 0.5 mg/L) | pest or weed control at 0.5 µg/mL (Plutella xylostella; 0.5 mg/L, read-out: fatality rate against Plutella xylostella) | pest or weed control at 1 µg/mL (Plutella xylostella; 1 mg/L, read-out: fatality rate against Plutella xylostella) | pest or weed control at 1 µg/mL (Chilo suppressalis; 1 mg/L) | pest or weed control at 4 µg/mL (Chilo suppressalis; 4 mg/L) | pest or weed control at 40 µg/mL (Chilo suppressalis; 40 mg/L)
100%: pest or weed control at 10 µg/mL (Plutella xylostella; Table 71, 10 mg/L, read-out: Fatality rate (%, 3 d after administration) 10 mg/L) | pest or weed control at 0.5 µg/mL (Plutella xylostella; Table 73, 0.5 mg/L, read-out: Fatality rate (%, 3 d after administration) 0.5 mg/L) | pest or weed control at 1 µg/mL (Plutella xylostella; Table 73, 1 mg/L, read-out: Fatality rate (%, 3 d after administration) 1 mg/L)

Reference: patent US11407711B2, “Benzamide compound and use thereof” (METISA BIOTECHNOLOGY CO., LTD., priority 2018, dated 2022)
